# Measurements published in ChEMBL document CHEMBL5523724, “Rational Molecular Editing: A New Paradigm in Drug Discovery” (J Med Chem, 2024).
# pIC50: −log10 of the molar value.
# Tests used:
# [1] = target: T1, 3-hydroxy-3-methylglutaryl-coenzyme A reductase (Homo sapiens, UniProt P04035); experiment: Inhibition of HMG-CoA Reductase (unknown origin)
# T1 sequence (P04035 whole entry): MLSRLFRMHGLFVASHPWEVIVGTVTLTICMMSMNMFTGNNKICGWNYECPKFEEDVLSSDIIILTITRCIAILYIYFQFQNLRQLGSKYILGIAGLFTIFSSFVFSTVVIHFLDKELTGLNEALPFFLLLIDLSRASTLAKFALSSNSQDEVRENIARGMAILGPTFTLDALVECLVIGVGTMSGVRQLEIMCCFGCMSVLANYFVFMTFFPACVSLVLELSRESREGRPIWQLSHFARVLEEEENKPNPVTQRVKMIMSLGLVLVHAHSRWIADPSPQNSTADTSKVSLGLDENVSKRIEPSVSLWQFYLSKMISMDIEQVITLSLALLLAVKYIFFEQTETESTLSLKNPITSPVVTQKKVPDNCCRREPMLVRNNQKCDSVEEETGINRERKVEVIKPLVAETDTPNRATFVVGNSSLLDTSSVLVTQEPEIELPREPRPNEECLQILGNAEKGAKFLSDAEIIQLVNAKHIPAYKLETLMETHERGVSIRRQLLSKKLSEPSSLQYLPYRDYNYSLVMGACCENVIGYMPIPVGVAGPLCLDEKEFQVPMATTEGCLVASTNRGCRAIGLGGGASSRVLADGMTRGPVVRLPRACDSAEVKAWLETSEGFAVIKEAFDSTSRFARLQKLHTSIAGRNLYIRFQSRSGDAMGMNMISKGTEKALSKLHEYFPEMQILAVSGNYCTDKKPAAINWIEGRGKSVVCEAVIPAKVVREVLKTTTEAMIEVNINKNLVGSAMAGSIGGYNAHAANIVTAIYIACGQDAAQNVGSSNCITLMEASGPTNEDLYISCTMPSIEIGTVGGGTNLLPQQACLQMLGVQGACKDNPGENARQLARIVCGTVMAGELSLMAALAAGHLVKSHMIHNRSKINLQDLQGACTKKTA
# Ramos = experiment: Antitumor activity against human Ramos cells; assay type: functional, cell-based
pIC50 [1],pIC50 (Ramos),SMILES
8.15,–,CC(C)c1c(C(=O)Nc2ccccc2)c(-c2ccccc2)c(-c2ccc(F)cc2)n1CC[C@@H]1C[C@@H](O)CC(=O)O1 [ATORVASTATIN LACTONE]
–,4.42,Cc1cccc(P(=O)(CNCc2ccccc2)c2cccc(C)c2)c1
–,5.38,[2H]C([2H])(NCc1ccccc1)P(=O)(c1cccc(C)c1)c1cccc(C)c1
6.64,–,CC(C)c1ccc(-c2ccc(F)cc2)n1CC[C@@H]1C[C@@H](O)CC(=O)O1
